Reference: ChEMBL document CHEMBL1201862, “PubChem BioAssay data set” (2004)
Values joined by “and” are separate entries in the source; they are usually repeats but may differ in a detail not shown here. Equal entries are not always repeated. Active and inactive are the calls of the source.

Key:
Leucine aminopeptidase = molecular target: T1, Leucine aminopeptidase (Plasmodium falciparum 3D7, UniProt Q8IL11); experiment: P. falciparum M17LAP inhibitors, primary screen, biochemical, fluorogenic H-Leu-NHMec substrate, 1536-well (AID 1619); assay type: functional
T1 sequence (Q8IL11 whole entry): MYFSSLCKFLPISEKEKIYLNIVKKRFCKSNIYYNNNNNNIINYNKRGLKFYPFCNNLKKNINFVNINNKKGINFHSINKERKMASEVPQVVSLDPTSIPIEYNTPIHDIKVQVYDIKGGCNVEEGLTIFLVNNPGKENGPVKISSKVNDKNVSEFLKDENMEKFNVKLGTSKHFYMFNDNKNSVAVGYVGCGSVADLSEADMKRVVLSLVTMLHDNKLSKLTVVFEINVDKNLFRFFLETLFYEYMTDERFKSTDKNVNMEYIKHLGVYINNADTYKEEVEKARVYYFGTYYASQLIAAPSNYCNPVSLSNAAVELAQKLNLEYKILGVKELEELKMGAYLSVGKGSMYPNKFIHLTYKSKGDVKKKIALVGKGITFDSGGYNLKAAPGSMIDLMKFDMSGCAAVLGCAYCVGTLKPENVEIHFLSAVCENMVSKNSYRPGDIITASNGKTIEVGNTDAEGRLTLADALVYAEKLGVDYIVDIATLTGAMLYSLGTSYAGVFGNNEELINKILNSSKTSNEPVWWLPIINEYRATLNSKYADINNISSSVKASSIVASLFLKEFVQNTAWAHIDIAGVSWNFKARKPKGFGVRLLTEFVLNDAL

Cytochrome P450 1A2 = molecular target: T2, Cytochrome P450 1A2 (Homo sapiens, UniProt P05177);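 also: PubChem cytochrome P450 panel assay, CYP1A2 panel member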
T2 sequence (P05177 whole entry): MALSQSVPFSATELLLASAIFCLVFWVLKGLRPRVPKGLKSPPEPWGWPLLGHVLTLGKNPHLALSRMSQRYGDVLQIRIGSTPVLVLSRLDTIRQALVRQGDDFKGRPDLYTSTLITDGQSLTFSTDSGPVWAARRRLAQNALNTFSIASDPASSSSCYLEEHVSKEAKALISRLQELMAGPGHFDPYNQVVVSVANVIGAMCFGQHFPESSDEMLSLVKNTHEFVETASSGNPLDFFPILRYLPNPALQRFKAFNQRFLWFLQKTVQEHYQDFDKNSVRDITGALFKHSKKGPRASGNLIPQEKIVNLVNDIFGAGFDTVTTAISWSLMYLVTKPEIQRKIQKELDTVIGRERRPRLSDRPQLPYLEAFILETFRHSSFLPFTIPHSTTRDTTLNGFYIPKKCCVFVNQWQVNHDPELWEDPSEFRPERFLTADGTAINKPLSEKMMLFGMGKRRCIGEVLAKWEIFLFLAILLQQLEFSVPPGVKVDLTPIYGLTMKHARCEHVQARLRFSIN

Cytochrome P450 2C9 = Cytochrome P450 2C9 (Homo sapiens, UniProt P11712)
[1] = molecular target: T3, Ubiquitin-conjugating enzyme E2 N (Homo sapiens, UniProt P61088); assay type: functional;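 also: Dose-response confirmation in a TR-FRET assay detecting UBC13-driven polyubiquitin chain formation, inhibition measured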
T3 sequence (P61088 whole entry): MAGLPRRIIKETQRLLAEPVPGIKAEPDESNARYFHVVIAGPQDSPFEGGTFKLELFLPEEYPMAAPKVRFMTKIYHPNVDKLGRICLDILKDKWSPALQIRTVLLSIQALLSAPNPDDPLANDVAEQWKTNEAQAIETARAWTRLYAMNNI

[2] = viability loss in THP-1 monocytes – THP-1 cells, cytotoxicity control for Vif-APOBEC3G degradation inhibitor project, dose response (AID 1117359); assay type: functional; conditions: THP-1
[3] = Luminescence Cell-Based Dose Response HTS to Identify Activators of Luciferase Translation or Activity in H4 […] Cells. [Related pubchem assays: 1829 (Project Summary), 1814 (Primary HTS)]; assay type: functional
[4] = system: Streptococcus sp. 'group A'; experiment: Streptococcus pyogenes SK(-)GAS viability under kanamycin – luminescence, BacTiterGlo, confirmation, counter-screen for streptokinase expression inhibitor project, dose response (AID 1900); assay type: functional, organism-based
H4 = experiment: Luminescence Cell-Based Dose Response HTS to Identify Activators of 5'UTR Stem-Loop Driven Prion Protein mRNA Translation in H4 Neuroglioblastoma Cells. [Related pubchem assays: 1829 (Project Summary), 1814 (Primary HTS)]; assay type: functional; conditions: Homo sapiens
Streptokinase A = molecular target: T4, Streptokinase A (Streptococcus pyogenes serotype M1, UniProt P10520); experiment: viability-normalized secreted streptokinase activity reduction – plasminogen activation absorbance, OD405, dose response (AID 1914); assay type: functional, Streptococcus pyogenes M1 GAS;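 also: secreted streptokinase activity via plasminogen activation per viability signal from cell pellet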
T4 sequence (P10520 whole entry): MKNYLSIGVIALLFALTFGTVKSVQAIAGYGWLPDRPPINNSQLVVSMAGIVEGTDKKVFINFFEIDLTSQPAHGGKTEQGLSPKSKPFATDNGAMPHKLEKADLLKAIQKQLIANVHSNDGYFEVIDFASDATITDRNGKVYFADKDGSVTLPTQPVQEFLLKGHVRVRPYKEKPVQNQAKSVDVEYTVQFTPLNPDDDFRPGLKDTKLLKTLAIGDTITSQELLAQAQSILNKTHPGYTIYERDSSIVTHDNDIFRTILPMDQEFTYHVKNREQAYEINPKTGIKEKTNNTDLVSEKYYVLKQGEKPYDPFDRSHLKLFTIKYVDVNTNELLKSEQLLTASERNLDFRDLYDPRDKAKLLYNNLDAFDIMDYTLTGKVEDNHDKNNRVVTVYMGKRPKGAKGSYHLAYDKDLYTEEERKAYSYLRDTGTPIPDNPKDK

[5] = Trypanosoma cruzi growth suppression in host cells – NIH3T3 host cells, beta-gal luminescence, confirmation (AID 2044); assay type: functional, cell-based;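 also: intracellular parasites grown in NIH/3T3 mouse fibroblasts as host cells; luminescent beta-galactosidase reporter signal from transgenic T. cruzi replicating inside host cells; inhibitors lower the luminescence signal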
[6] = NIH3T3 cell viability loss – ATP luminescence, mouse fibroblasts, counter-screen, dose response (AID 2010); assay type: functional, cell-based;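 also: cells exposed to compound for about 90 hours before reading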
Streptococcus = experiment: GAS UMAA2166 growth inhibition – luminescence, BacTiterGlo, counter-screen for streptokinase expression inhibitor project, dose response (AID 1915); assay type: functional, organism-based;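 also: potency for reduction of bacterial viability or growth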
Nonstructural protein 1 = Nonstructural protein 1 (Influenza A virus, UniProt Q194T2); assay type: functional, Influenza A virus (A/California/07/2009(H1N1))
[7] = molecular target: T5, Replicative DNA helicase DnaB (Mycobacterium tuberculosis, UniProt P9WMR3); experiment: DnaB intein splicing inhibitors, dose response, biochemical, cell-free fluorescence (AID 449749); assay type: functional
T5 sequence (P9WMR3 whole entry): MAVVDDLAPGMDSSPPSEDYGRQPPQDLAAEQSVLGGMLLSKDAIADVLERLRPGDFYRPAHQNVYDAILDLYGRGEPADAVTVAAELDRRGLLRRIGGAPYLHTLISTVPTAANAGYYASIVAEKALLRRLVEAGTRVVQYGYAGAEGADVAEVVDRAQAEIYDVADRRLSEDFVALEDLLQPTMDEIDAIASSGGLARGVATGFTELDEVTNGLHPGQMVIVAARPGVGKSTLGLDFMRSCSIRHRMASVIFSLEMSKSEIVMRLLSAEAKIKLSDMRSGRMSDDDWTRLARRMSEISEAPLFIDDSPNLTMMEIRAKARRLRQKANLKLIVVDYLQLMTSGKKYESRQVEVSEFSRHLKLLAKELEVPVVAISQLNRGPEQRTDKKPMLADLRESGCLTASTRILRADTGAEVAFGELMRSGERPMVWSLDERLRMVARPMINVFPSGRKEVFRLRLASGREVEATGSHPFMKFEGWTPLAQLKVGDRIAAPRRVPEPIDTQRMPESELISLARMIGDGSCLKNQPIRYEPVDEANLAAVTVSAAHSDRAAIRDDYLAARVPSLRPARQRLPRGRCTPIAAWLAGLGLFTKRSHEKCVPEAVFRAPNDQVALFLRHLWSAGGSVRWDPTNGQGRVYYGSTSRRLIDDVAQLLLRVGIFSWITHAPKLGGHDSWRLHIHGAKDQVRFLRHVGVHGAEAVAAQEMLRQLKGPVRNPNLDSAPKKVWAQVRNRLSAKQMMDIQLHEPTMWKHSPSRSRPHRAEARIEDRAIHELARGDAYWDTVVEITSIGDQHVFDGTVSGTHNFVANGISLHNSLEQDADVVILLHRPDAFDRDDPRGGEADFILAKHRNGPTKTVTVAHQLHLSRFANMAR

Protein RecA = molecular target: T6, Protein RecA (Mycobacterium tuberculosis, UniProt P9WHJ3); experiment: Fluorescence Cell-Free Homogeneous Dose Retest to Identify Inhibitors of RecA-Intein Splicing Activity. [Related pubchem assays (depositor defined):AID2097, AID2223, AID489010, AID492950]; assay type: functional
T6 sequence (P9WHJ3 whole entry): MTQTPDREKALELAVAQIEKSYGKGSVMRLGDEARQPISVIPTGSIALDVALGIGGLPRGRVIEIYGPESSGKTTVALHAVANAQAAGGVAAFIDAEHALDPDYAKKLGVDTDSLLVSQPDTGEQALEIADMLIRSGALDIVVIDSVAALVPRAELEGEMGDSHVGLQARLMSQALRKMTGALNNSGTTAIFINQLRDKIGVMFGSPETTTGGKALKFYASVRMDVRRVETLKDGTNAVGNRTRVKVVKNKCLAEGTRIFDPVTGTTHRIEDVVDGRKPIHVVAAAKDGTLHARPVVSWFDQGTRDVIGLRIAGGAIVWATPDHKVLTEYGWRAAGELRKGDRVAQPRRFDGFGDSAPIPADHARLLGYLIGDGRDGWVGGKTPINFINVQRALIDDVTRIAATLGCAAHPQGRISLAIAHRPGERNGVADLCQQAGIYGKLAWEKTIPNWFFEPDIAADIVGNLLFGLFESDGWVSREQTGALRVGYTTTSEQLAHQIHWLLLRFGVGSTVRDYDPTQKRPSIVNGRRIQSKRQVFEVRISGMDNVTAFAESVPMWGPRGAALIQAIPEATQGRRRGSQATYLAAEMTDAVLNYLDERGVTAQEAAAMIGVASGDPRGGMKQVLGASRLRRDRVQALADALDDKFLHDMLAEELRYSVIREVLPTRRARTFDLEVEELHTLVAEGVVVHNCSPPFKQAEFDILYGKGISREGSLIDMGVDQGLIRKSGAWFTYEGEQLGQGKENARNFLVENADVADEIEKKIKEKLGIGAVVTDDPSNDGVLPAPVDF

Nonstructural protein 1, sequence (Q194T2 whole entry): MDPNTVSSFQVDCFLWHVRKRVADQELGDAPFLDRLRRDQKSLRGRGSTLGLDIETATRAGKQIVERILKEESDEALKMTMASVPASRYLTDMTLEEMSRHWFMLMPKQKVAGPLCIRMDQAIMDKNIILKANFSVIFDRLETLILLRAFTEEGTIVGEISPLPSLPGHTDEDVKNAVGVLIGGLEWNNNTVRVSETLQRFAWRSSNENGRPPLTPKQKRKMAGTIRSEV
Cytochrome P450 2C9, sequence (P11712 whole entry): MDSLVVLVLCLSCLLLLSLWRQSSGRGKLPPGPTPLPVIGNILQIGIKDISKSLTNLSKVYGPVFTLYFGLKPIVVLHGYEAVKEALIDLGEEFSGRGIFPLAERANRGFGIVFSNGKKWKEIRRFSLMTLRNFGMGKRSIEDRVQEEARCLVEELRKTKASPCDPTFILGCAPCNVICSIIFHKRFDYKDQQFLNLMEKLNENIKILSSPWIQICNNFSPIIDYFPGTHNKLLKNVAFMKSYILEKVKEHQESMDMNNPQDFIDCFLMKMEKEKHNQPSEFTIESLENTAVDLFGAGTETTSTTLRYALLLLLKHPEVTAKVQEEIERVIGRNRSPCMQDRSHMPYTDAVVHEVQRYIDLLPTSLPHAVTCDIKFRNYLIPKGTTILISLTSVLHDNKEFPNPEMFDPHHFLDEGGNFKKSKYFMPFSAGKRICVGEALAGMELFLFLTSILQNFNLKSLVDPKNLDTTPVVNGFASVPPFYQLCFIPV

In the case of `Cc1cc(NC(=O)CCN2C(=O)C3C4CCC(C4)C3C2=O)c(C)cc1Br` (stereo not given), the IC50 (Leucine aminopeptidase) is reported as 13.7 µM (active), the AC50 (Cytochrome P450 1A2) is reported as 15.8 µM (inconclusive) and the AC50 (Cytochrome P450 2C9) is reported as “inconclusive”.

With `Cc1cccc(N(C(=O)c2snc(C(N)=O)c2N)C(C(=O)NC2CCCC2)c2ccco2)c1` (stereo not given) the IC50 [1] was > 20 µM (inactive).

With `COc1ccccc1N1CCN(C(=O)c2ccoc2C)CC1` the CC50 [2] was > 40 µM (active).

For `Nc1nc(-c2ccccn2)nc(N)c1Cc1ccccc1F`, the EC50 [3] was 5.85 µM (active), the EC50 [4] was 11 µM (active) and the EC50 (H4) was 414 nM (active). For the same compound, the EC50 (Streptokinase A) was > 150 µM (not active), the EC50 [5] was 2.52 µM (active) and the EC50 [6] was > 60 µM (not active). For the same compound, the EC50 (Streptococcus) was > 150 µM (not active) and the IC50 (Nonstructural protein 1) was 6.51 µM (active).

With `CCC(=O)NC(c1cc(Cl)c2ccccc2c1O)C(C)C` (stereo not given) the IC50 [1] was > 20 µM (inactive).

For `Nc1n[nH]c(SCC(=O)Nc2ccc3c(c2)CCC3)n1`, the IC50 (Leucine aminopeptidase) was 45.2 µM (active).

For `Cc1ccc(C(=O)/C=C/c2cc(C#N)n(C)c2C)cc1`, the CC50 [2] was > 40 µM (active).

In the case of `O=C(Cc1cc(O)n[nH]1)N/N=C/C(Cl)=C/c1ccccc1`, the IC50 (Leucine aminopeptidase) is reported as 90.6 µM (active), the AC50 [7] is reported as 1.95 µM (active) and 2.24 µM (active) and the EC50 (Protein RecA) is reported as 1.02 µM (active) and 2.32 µM (active).

With `COc1ccccc1NC(=O)c1c(/N=C/c2cccc([N+](=O)[O-])c2)cnn1C` the IC50 [1] was > 20 µM (inactive).
